Reference: patent US20130078317A1, “ZINC-CONTAINING COMPOSITIONS FOR THE TREATMENT OF DISEASES, ILLNESSES AND SYNDROMES ASSOCIATED WITH EXPOSURE TO PORE FORMING TOXINS” (priority 2009, published 2013)
“And” between values parts separate entries of the source, which are not always exact repeats. Identical values can stand only once. “Also recorded” adds a separate entry of the source.

What was measured:
hemolytic toxins = conditions: 10 mM D-lactulose; cited from earlier work
Chironex fleckeri venom = assay: Mouse envenomation model with echocardiography/electrocardiography, survival, plasma hemoglobin and potassium (Example 6); assay type: in vivo
[1] = system: mushroom pore-forming toxin; assay: Human subjects exposed to a mushroom pore-forming toxin, intravenous (Example 13); assay type: in vivo; conditions: IV 2.5 to 4 mg per day
Method: In this Example, human subjects are treated with zinc gluconate intravenously after being exposed to a mushroom pore-forming toxin. […] Samples are removed to monitor levels of potassium, cytokines, histamine, and catecholamine, in the blood serum.

bacterial porin = assay: Human subjects exposed to a bacterial porin, intravenous (Example 11); assay type: in vivo; conditions: IV 2.5 to 4 mg per day
Method: In this Example, human subjects are treated with zinc gluconate intravenously after being exposed to a bacterial porin. […] Samples are removed to monitor levels of potassium, cytokines, histamine, and catecholamine, in the blood serum.

[2] = system: Carybdea alata venom in isolated red blood cells (2% RBC); assay type: cell-based, human
viral porin = assay: Human subjects exposed to a viral porin, intravenous (Example 12); assay type: in vivo; conditions: IV 2.5 to 4 mg per day
Method: In this Example, human subjects are treated with zinc gluconate intravenously after being exposed to a viral porin. […] Samples are removed to monitor levels of potassium, cytokines, histamine, and catecholamine, in the blood serum.

cubozoan porin [3] = assay: Human subjects envenomated by a cubozoan porin, transdermal patch (Example 10); assay type: in vivo; conditions: iontophoresis, 5 mM at 40 mAmp/min
cubozoan porin [4] = conditions: pig, in vivo
cubozoan porin [5] = assay: Human subjects envenomated by a cubozoan porin, intravenous zinc gluconate (Example 8); assay type: in vivo; conditions: IV infusion 2.5 to 4 mg per day
[6] = system: Chironex fleckeri venom in whole blood; assay: Cytokine production in whole blood exposed to Chironex fleckeri venom; assay type: cell-based, human; conditions: CF venom, 5 mM zinc gluconate, FIG. 7
[7] = system: Chironex fleckeri venom in whole blood; assay: Hemolysis induced by Chironex fleckeri venom in whole blood; assay type: cell-based, human; conditions: 5 mM zinc gluconate, compared to untreated cells, FIG. 6
[8] = system: Chironex fleckeri venom in whole blood; assay type: cell-based, human
[9] = system: Carybdea alata venom in isolated red blood cells (2% RBC); assay: Hemolysis induced by Carybdea alata venom in 2% RBC; assay type: cell-based, human
[10] = system: Chironex fleckeri venom in isolated red blood cells (2% RBC); assay type: cell-based, human
cubozoan porin [11] = assay: Human subjects envenomated by a cubozoan porin, subcutaneous bolus then continuous IV (Example 9); assay type: in vivo; conditions: subcutaneous bolus 5 mL of 100 mM, then IV 5 mM
[12] = system: Chironex fleckeri venom in whole blood; assay: Catecholamine and histamine response in whole blood exposed to Chironex fleckeri venom; assay type: cell-based, human; conditions: CF venom, 5 mM zinc gluconate, FIG. 8
[13] = mice, Zn Gluc then 2000 U venom IV, cardiac blood at death

In the case of `OC[C@H]1O[C@@H](O[C@@H]2[C@@H](CO)O[C@](O)(CO)[C@H]2O)[C@H](O)[C@@H](O)[C@H]1O` [D-lactulose], the Hemolysis (hemolytic toxins) is listed as “dramatic absence of hemolysis”.

With zinc gluconate the EKG recovery (Chironex fleckeri venom; Mouse 2010-6-09-2, FIG. 10) was “recovered within thirty seconds”, the “time of cessation of ventricular contraction” value (Chironex fleckeri venom; Mouse 2010-6-09-2, FIG. 10) was 10.5 min and the “time of recovery of ventricular contraction” value (Chironex fleckeri venom; Mouse 2010-6-09-2, FIG. 10) was 11 min. For the same molecule, the “rebounds of ventricular contraction subsequent to periods of pulseless electrical activity (PEA)” value (Chironex fleckeri venom; mice pre-injected with zinc gluconate, in three mice) was “frequently observed”, the Hemolysis (Chironex fleckeri venom; [13]) was 6% and 4% and 2% and 3% and the “Plasma Hgb” value (Chironex fleckeri venom; [13]) was 860 mg/100 mL and 673 mg/100 mL and 471 mg/100 mL. The survival rates (Chironex fleckeri venom; relative to the untreated mice, FIG. 11) was “higher survival rates”, the “duration of survival post-envenomation (survival times)” value (Chironex fleckeri venom; relative to the untreated mice, intravenous, FIG. 11, P<0.0001) was “longer durations of survival; also recorded: significantly prolonged” and the “normal EKG conductive sequences maintained” value (Chironex fleckeri venom; zinc treated animals exposed to cubozoan PFT) was “for longer periods”. For the same molecule, the “health of the subject” value [1] was “improve the health of the subject”, the “severity of physiological symptoms associated with porin exposure” value [1] was “reduce the severity of physiological symptoms” and the “health of the subject” value (bacterial porin) was “improve the health of the subject”. The “severity of physiological symptoms associated with porin exposure” value (bacterial porin) was “reduce the severity of physiological symptoms”, the “potassium efflux induced by Carybdea alata venom” value [2] was “fully inhibited” and the “health of the subject” value (viral porin) was “improve the health of the subject”. For the same molecule, the “severity of physiological symptoms associated with porin exposure” value (viral porin) was “reduce the severity of physiological symptoms”, the “likelihood of a lethal outcome” value (cubozoan porin [3]) was “decrease the likelihood a lethal outcome” and the “severity of physiological symptoms associated with the venom poisoning” value (cubozoan porin [3]) was “reduce the severity of physiological symptoms”. The severity of symptoms (cubozoan porin [4]) was “reduce the severity of symptoms”, the survival (cubozoan porin [4]) was “siginificantly improve survival” and the “likelihood of a lethal outcome” value (cubozoan porin [5]) was “decrease the likelihood a lethal outcome”. For the same molecule, the “severity of physiological symptoms associated with the venom poisoning” value (cubozoan porin [5]) was “reduce the severity of physiological symptoms”, the “production of EGF” value [6] was “reduced” and the “production of G-CSF” value [6] was “reduced”. The “production of GRO” value [6] was “reduced”, the “production of IFNα2” value [6] was “reduced” and the “production of PDGF-AA” value [6] was “reduced”. For the same molecule, the “production of TNFα” value [6] was “reduced”, the “hemolysis induced by Chironex fleckeri venom” value [7] was “substantially less severe hemolysis” and the “potassium efflux induced by Chironex fleckeri venom” value [8] was “inhibited”. The “hemolysis induced by Carybdea alata venom” value ([9]; 2% RBC, 5 mM zinc gluconate) was “substantially inhibited”, the “decrease of the total hemolytic capacity of the venom dose” value ([9]; venom dose 6.4 U/ml) was “more than 10 fold” and the “potassium efflux induced by Chironex fleckeri venom” value [10] was “fully inhibited”. For the same molecule, the “likelihood of a lethal outcome” value (cubozoan porin [11]) was “decrease the likelihood a lethal outcome”, the “severity of physiological symptoms associated with the venom poisoning” value (cubozoan porin [11]) was “reduce the severity of physiological symptoms” and the catecholamine response [12] was “reduced”. The histamine response [12] was “reduced”.
